According to paper PMC5808360, “Neutral Porphyrin Derivative Exerts Anticancer Activity by Targeting Cellular Topoisomerase I (Top1) and Promotes Apoptotic Cell Death without Stabilizing Top1-DNA Cleavage Complexes” (Journal of Medicinal Chemistry, 2017):
Like-named read-outs stand apart in the source and are kept apart here.

Experiments:
[1] = target: T1, recombinant Top1 (Homo sapiens, UniProt P11387); experiment: Dilution assay with recombinant Top1 (reversibility of inhibition); assay type: biochemical
T1 construct: made in house; host or cells: Sf-9 insect cells (recombinant baculovirus, gift of Prof. James J. Champoux)
T1 sequence (P11387 1-765): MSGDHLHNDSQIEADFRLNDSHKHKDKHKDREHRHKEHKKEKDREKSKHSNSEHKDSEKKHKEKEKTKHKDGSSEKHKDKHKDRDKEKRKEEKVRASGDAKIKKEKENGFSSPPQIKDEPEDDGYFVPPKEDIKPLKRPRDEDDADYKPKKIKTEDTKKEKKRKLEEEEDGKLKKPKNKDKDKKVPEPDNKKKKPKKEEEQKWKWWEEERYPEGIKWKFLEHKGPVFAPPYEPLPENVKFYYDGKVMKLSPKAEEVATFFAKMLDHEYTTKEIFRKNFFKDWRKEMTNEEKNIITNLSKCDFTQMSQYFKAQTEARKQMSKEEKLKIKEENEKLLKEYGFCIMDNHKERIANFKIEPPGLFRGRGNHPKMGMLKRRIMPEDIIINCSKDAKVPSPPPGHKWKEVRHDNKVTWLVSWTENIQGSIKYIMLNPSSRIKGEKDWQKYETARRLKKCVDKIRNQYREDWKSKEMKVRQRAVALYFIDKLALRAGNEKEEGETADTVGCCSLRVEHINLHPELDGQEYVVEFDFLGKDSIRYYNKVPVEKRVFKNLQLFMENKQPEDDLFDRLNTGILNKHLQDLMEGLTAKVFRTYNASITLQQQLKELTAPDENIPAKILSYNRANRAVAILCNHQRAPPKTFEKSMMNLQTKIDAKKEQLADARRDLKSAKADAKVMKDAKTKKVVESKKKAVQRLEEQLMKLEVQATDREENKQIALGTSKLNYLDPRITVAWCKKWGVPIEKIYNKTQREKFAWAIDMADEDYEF
Description: To further investigate the nature of binding of compound 8 with Top1 (reversible vs irreversible),[12],[14] we performed dilution assay with recombinant Top1.

[2] = Cell survival (MTT) assay, MEFs (TDP1+/+ and TDP1-/-); assay type: cell-based, mouse; conditions: mouse, read-out: IC50 cytotoxicity
Description: (§1) Compound 8 was investigated for its cytotoxicity in the cancer cell lines from different tissue origin,[6],[41] as well as in the noncancerous human embryonic kidney cell lines (HEK293) and mouse embryonic fibroblasts (MEFs). […] The MCF7 breast cancer cell lines were most susceptible to compound 8.
(§2) Human cancerous cell lines like MCF7, HeLa, HCT116, NIH:OVCAR-3, and HEK293 were obtained from the Developmental Therapeutics Program as kind gift from Dr. Yves Pommier (NIH/NCI/USA). TDP1^+/+ and TDP1^–/– primary MEF cells were kind gift from Dr. Cornelius F. Boerkoel (University of British Columbia, Canada) and were cultured as described previously.[6],[36],[40],[42] Plasmid DNAs were transfected with Lipofectamine 2000 (Invitrogen) according to the manufacturer’s protocol.
(§3) Cell survival was assessed by 3-(4,5-dimethylthiazol-2-yl)-2,5-diphenyltetrazolium bromide (MTT) assay as discussed previously.[6] The percent inhibition of viability for each concentration of the compounds was calculated with respect to the control, and IC50 values were estimated.

[3] = test system: mouse embryonic fibroblasts (MEFs); experiment: as above; assay type: cell-based
Description: as §1, §2, §3

[4] = target: T2, Top1-DNA cleavage complexes (Top1cc) (Homo sapiens, UniProt P11387); experiment: Plasmid DNA cleavage assay (Top1cc formation); assay type: biochemical
T2 construct: made in house; host or cells: Sf-9 insect cells (recombinant baculovirus, gift of Prof. James J. Champoux)
T2 sequence (P11387 1-765): T1 sequence (P11387 1-765)
Protocol: Because camptothecin (CPT) stabilizes Top1-DNA cleavable complexes (Top1cc) to inhibit Top1 activity,[3],[5],[37] we investigated compound 8 induced Top1cc formation with the plasmid DNA cleavage assays.[6],[8],[36],[37] Top1 mediated conversion of closed circular DNA (form I) to nicked circular DNA (form II) in the presence of specific inhibitors is referred to as “cleavable complex”. […] To further investigate the impact of compound 8 on preformed Top1cc, we preincubated Top1 with plasmid DNA and CPT (Figure 2B) before the addition of compound 8 in the cleavage assays.
Plasmid DNA cleavage assay was carried out as described previously.[6],[8] For equilibrium cleavage assays, 25-mer duplex of oligonucleotide containing a Top1 binding motif was labeled and annealed as described previously.[13],[36],[38] Samples were analyzed by 12% sequencing gel electrophoresis, dried, and exposed on PhosphorImager screens and imaged with Typhoon FLA 7000 (GE Healthcare, U.K.).

- inhibition at 1 µM ([1]; Top1 preincubated with 1 μM compound, read-out: Inhibition of enzyme before dilution): 90 to 99%
- Relief of Top1 inhibition upon dilution ([1]; at 40-fold dilution (final 0.025 μM)): Complete relief of Top1 inhibition
- Effect on CPT-induced preformed Top1cc in plasmid DNA cleavage assay ([4]; Top1 preincubated with plasmid DNA and CPT before addition of compound, dose dependent): completely abrogated CPT-induced Top1cc
- Stabilization of Top1cc in plasmid DNA cleavage assay ([4]; recombinant human Top1 100 fmol, pBS (SK+) DNA, 37 °C, 30 min): failed to stabilize Top1cc
SMILES: CN(C)c1ccc(-c2c3nc(c(-c4ccc(N(C)C)cc4)c4ccc([nH]4)c(-c4ccc(C(=O)O)cc4)c4nc(c(-c5ccc(C(=O)O)cc5)c5ccc2[nH]5)C=C4)C=C3)cc1 [Compound 8, 5,10-Bis(4-carboxyphenyl)-15,20-bis(4-dimethylaminophenyl)porphyrin]
- IC50 ([2]; TDP1+/+ primary mouse embryonic fibroblasts (MEFs), TDP1+/+ MEFs): > 10 µM
- IC50 ([2]; TDP1-/- primary mouse embryonic fibroblasts (MEFs), TDP1-/- MEFs): > 10 µM
- IC50 ([2]; mouse embryonic fibroblasts (MEFs), MEFs, noncancerous): > 10 µM
- Sensitivity of TDP–/– versus TDP1+/+ MEFs cells [3]: equally sensitive
